# Counter-ions that a name gives are not always drawn.
# How the values were obtained:
# [1] = tested on: type II collagen promoter (COL2A1-Gaussia luciferase) in primary human chondrocytes; assay: HuCol2gLuc 3D aggregate type II collagen promoter-driven Gaussia luciferase assay; assay type: cell-based; settings: for stimulation of type II collagen production in the screen of natural products: NCI Natural Products Set V, 5 μM continuously, 22-day assay
# Method: Chondrogenic Culture. Human COL2A1-GLuc or uninfected cells were thawed and seeded in growth media on synoviocyte matrix at 6,000 cells/cm^2 and expanded to 90-100% confluence in physioxia. Cells were trypsinized (0.25% Trypsin/EDTA; Corning), resuspended in growth media (for monolayer culture) or chondrogenic differentiation media for 3D aggregates (93.24% High-Glucose DMEM (Gibco), 1% dexamethasone 10^−5M (Sigma), 1% ITS+premix (Becton-Dickinson), 1% Glutamax (Hyclone), 1% 100 mM Sodium Pyruvate (Hyclone), 1% MEM Non-Essential Amino Acids (Hyclone), 0.26% L-Ascorbic Acid Phosphate 50 mM (Wako), 0.5% Fungizone (Life Technologies) with TGF-β1 (Peprotech) and seeded as described below.
# Generation and Maintenance of 3D aggregates. To generate 3D aggregates, cells were seeded at 50,000 cells per well (in 96-well cell repellent u-bottom plates, GreinerBio) and then centrifuged at 500 RCF, 5 min. For the initial drug screen, aggregates were cultured in basal chondrogenic media (1 ng/ml TGF-β1) alone, with DMSO (vehicle control) or 5 μM of the drug compounds from the NCI library (Natural Products V, NCI). For candidate validation and subsequent studies aggregates were cultured in basal chondrogenic media (10 ng/ml TGF-β1) alone, with DMSO (vehicle control) or compounds as indicated in the results. Aggregates were cultured for three weeks in physioxic conditions, culture medium was sampled and replaced three times a week with fresh medium. An OT-2 (Opentrons) python coded robotic pipette, programmed at an aspiration height of 2 mm from the bottom of the wells and aspiration rate of 40 μl/s was utilized for addition of compound, cell feeding, and media sampling for luciferase assay. After three weeks, cell aggregates were either fixed in neutral buffered formalin for histology or medium removed and aggregates frozen dry (−20° C.) for biochemical assays.
# (§1) Luciferase Assay. Conditioned culture medium sampled from aggregates in 96-wells (20 μL/well) was assessed using a stabilized Gaussia Luciferase buffer mix (50 µl/well) for a final concentration of 0.09 M MES, 0.15M Ascorbic Acid, and 4.2 μM Coelenterazine in white 96-well plates. Luminescence was measured in a plate reader (25° C., relative light units (RLU), En Vision plate reader). An OT-2 (Opentrons) python coded robotic pipette was utilized for luciferase buffer addition to white plates (GreinerBio).
# [2] = tested on: type II collagen promoter (COL2A1-GLuc) in primary rabbit chondrocytes; assay: COL2A1-GLuc primary rabbit chondrocyte 3D aggregate luciferase assay; assay type: cell-based; settings: day 21; for luminescence: basal media alone ~40,000 RLU; for luminescence with a single vitamin or mineral vs basal media alone: one factor at a time
# Method: Chondrogenic Culture. Rabbit COL2A1-GLuc were thawed and seeded in growth media at 6000 cells/cm^2 and expanded to 90-100% confluence in physioxia. Cells were trypsinized (0.25% Trypsin/EDTA; Corning), resuspended in basal chondrogenic media (93.24% High-Glucose DMEM (Gibco), 1% dexamethasone 10^−5 M (Sigma), 1% ITS+premix (Becton-Dickinson), 1% Glutamax (Hyclone), 1% 100 mM Sodium Pyruvate (Hyclone), 1% MEM Non-Essential Amino Acids (Hyclone), 0.26% L-Ascorbic Acid Phosphate 50 mM (Wako), 0.5% Fungizone (Life Technologies) with TGF-β1 (Peprotech) and seeded as described below.
# Generation and Maintenance of 3D Aggregates. To generate 3D aggregates, cells were seeded at 50,000 cells per well (in 96-well cell repellent u-bottom plates, GreinerBio) and then centrifuged at 500 RCF, 5 min. For the TGF-β1 dose response studies, that serve as positive controls for the reporter cells, aggregates were cultured in basal chondrogenic media and different concentrations of TGF-β1 ranging from 0-10 ng/ml. For the DoE studies, aggregates were cultured in basal chondrogenic media (1 ng/ml TGF-β1) as a control or basal media supplemented with vitamins and minerals (Table 3 and Table 5). Plates were cultured for three weeks in physioxia, media was sampled and replaced three times a week with respective medium. An OT-2 (Opentrons) python coded robotic pipette, programmed at an aspiration height of 2 mm from the bottom of the wells and aspiration rate of 40 μl/s was utilized for media preparation, cell feeding, and media sampling for luciferase assay. After three weeks, cell aggregates were either fixed in neutral buffered formalin for histology or medium removed and aggregates frozen dry (−20° C.) for biochemical assays.
# as §1, with “Cell” for “Conditioned”, “the seeded” for “aggregates in”, “at” for “mix (50 µl/well) for”, “units,” for “units (RLU),”
# [3] = tested on: HuCol2gLuc aggregates; assay: Biochemical assays (DNA, GAG, total collagen) on HuCol2gLuc aggregates; assay type: cell-based, human
# Method: Biochemical Assays. Aggregates frozen at day 22, were thawed with PBS, and digested with Papain (25 μg/ml, Sigma, P4762, in 2 mM cysteine; 50 mM sodium phosphate; 2 mM EDTA at a pH 6.5, 100 μl) at 65° C. overnight. Plates were sealed with a qPCR adhesive sealing film (USA Scientific), a silicone sheet, and steel plates clamped to the plate to prevent evaporation during digestion. Half of the digest (50 μl) was transferred to another plate and frozen for hydroxyproline assessment. In the remaining digest, papain was inactivated with 0.1M sodium hydroxide (NaOH, 50 μl) followed by NaOH neutralization (100 mM Na2HPO4, 0.1 N HCL, pH 1.82, 50 μl). To quantitate DNA content, samples of the neutralized digest (20 μl) were combined with buffered Hoechst dye (#33258, 667 ng/ml, phosphate buffer pH 8, 100 μl) and fluorescence measured at an excitation of 365 nm and emission of 460 nm. For GAG assessment, 1,9-Dimethyl-methylene blue solution (195 μl) was added to neutralized digests (5 μl) and absorbance measured at 595 nm and 525 nm. Readings were corrected by subtracting 595 nm reading from 525 nm. Micrograms of DNA and GAG were calculated using a Calf thymus DNA standard (Sigma) or Chondroitin Sulfate standard (Seikagaku Corp.), respectively.
# For hydroxyproline (HP) quantification, the frozen digests (50 μl) were thawed at room temperature and incubated overnight at 105° C. with 6M hydrochloric acid (200 μl). Plates were sealed to prevent evaporation. Samples were then dried at 70° C. overnight with a hydroxyproline standard (Sigma). Copper sulfate (0.15 M, 10 μl) and NaOH (2.5 M, 10 μl) were added to each well and incubated at 50° C. for 5 minutes, followed by hydrogen peroxide (6%, 10 μl) for 10 minutes. Sulfuric acid (1.5 M, 40 μl) and Ehrlich's reagent (20 μl) were added and samples incubated at 70° C. for 15 minutes. Absorbance was measured at 505 nm. Micrograms of hydroxyproline were calculated using the standard. Total collagen was calculated by the following formula (μg of HP×7.6=μg Total Collagen).
# [4] = tested on: rat knee; settings: cited from earlier work
# [5] = validation, donor 2, 10 ng/ml TGF-β1
molecule,measurement,setting,value
6-Hydroxy-2-methoxyaporphine,stimulation of type II collagen production in the screen of natural products,[1],stimulate type II collagen
"COc1cc2c3c(c1O)-c1cc(O)ccc1CC3N(C)CC2 (stereo not drawn) [1,10-Dihydroxy-2-methoxyaporphine]",stimulation of type II collagen production in the screen of natural products,[1],stimulate type II collagen
"Nc1ncnc2c1ncn2C1C=C(CO)C(O)C1O (stereo not drawn) [5-(6-Aminopurin-9-yl)-3-(hydroxymethyl)cyclopent-3-ene-1,2-diol]",stimulation of type II collagen production in the screen of natural products,[1],stimulate type II collagen
COc1cc2c3c(c1O)-c1cc(O)ccc1C[C@@H]3N(C)CC2 [(-)-Apoglaziovine],stimulation of type II collagen production in the screen of natural products,[1],stimulate type II collagen
"c1ccc(N2CCN(Cc3nc4ccccc4[nH]3)CC2)nc1 [ABT 724, reference compound]",luminescence vs untreated control,"[1]; donor 2, 0.1 μM or 1 μM",no effect
same,cumulative luminescence vs untreated controls,"[1]; donor 2, 10 μM and 25 μM",significant increase in luminescence
same,luminescence vs untreated control,"[1]; donor 2, 10 μM and 25 μM, from day 8 to day 22",increase in luminescence
"Nc1nc(=O)c2c([nH]1)NCC(CNc1ccc(C(=O)N[C@@H](CCC(=O)[O-])C(=O)[O-])cc1)N2C=O.[Ca+2] (stereo partly drawn) [Calcium folinate, reference compound]",stimulation of type II collagen production in the screen of natural products,[1],stimulate type II collagen
[Cu] [Copper],luminescence,[2],"~40,000 RLU"
"COC(=O)[C@H]1[C@H]2C[C@@H]3c4[nH]c5ccccc5c4CCN3C[C@H]2C[C@@H](OC(=O)c2cc(OC)c(OC)c(OC)c2)[C@@H]1OC [Drug 204, Deserpidine, reference compound]",stimulation of type II collagen production in the screen of natural products,[1]; listed as 204,stimulatory effects
same,stimulation of type II collagen production in the screen of natural products,[1]; listed as Deserpidine,stimulate type II collagen
same,day 22 luminescence normalized to DMSO vehicle control,"[1]; screen, 5 μM, 1 ng/ml TGF-β1",significant increase in luminescence
same,trend of luminescence over 22 days normalized to DMSO,"[1]; screen, 5 μM, 1 ng/ml TGF-β1",initial decrease in expression with continued increase in luminescence after day 8
same,cumulative luminescence,"[1]; validation, donor 1",no significant increase
same,luminescence over 22 days vs untreated control,"[1]; validation, donor 1, 10 ng/ml TGF-β1",increase in luminescence
same,luminescence over 22 days vs untreated control,[1]; [5],not donor 2
same,glycosaminoglycan (GAG) content,"[3]; day 22, donor 1",no effect on GAG
same,total collagen,"[3]; day 22, donor 1",no significant increase in total collagen
same,DNA content,"[3]; day 22, donor 2, vs untreated",significant decrease in DNA content
same,glycosaminoglycan (GAG) content,"[3]; day 22, donor 2, untreated 15 μg",10 µg
same,total collagen,"[3]; day 22, donor 2, untreated ~14 μg",no significant increase in total collagen
CC(C)=CC(=O)O[C@H]1[C@H]2[C@H](OC(=O)[C@H]2C)[C@H](O)[C@@H](C)[C@@H]2C=CC(=O)[C@]21C [Fastigilin B],stimulation of type II collagen production in the screen of natural products,[1],stimulate type II collagen
"Cl.Cl.Fc1ccc(N2CCN(CCC3OCCc4ccccc43)CC2)cc1 (stereo not drawn) [PNU 96415E, reference compound]",cumulative luminescence vs untreated controls,"[1]; donor 2, 12.5 μM and 25 μM",significant increase in luminescence
same,luminescence vs untreated controls,"[1]; donor 2, 12.5 μM and 25 μM",increased luminescence
C=C1C(=O)OC2C1CCC(C)C1(O)C=CC(=O)C21C (stereo not drawn) [Parthenicin],stimulation of type II collagen production in the screen of natural products,[1],stimulate type II collagen
"CC(=O)CCCCn1c(=O)c2c(ncn2C)n(C)c1=O [Pentoxifylline, reference compound]",stimulation of type II collagen production in the screen of natural products,[1],stimulate type II collagen
"CC(C)CC(=O)Nc1cncc(-c2ccc3[nH]nc(-c4nc5cncc(-c6cccc(F)c6)c5[nH]4)c3c2)c1 [SM04690, reference compound]",in vivo scaled amount,[4],0.3 μg/rat knee
"CC[C@]1(O)C[C@H]2CN(CCc3c([nH]c4ccccc34)[C@@](C(=O)OC)(c3cc4c(cc3OC)N(C=O)[C@H]3[C@@](O)(C(=O)OC)[C@H](OC(C)=O)[C@]5(CC)C=CCN6CC[C@]43[C@@H]65)C2)C1 [Vincristine sulfate, reference compound]",stimulation of type II collagen production in the screen of natural products,[1],stimulate type II collagen
"O=C(O)CCCC[C@@H]1SC[C@@H]2NC(=O)N[C@@H]21 [Vitamin B7, Biotin]",luminescence,[2],"~40,000 RLU"
same,luminescence with a single vitamin or mineral vs basal media alone,[2],higher luminescence
"[Cr] [chromium, Chromium]",luminescence with a single vitamin or mineral vs basal media alone,[2],higher luminescence
"[Co] [cobalt, Cobalt]",luminescence with a single vitamin or mineral vs basal media alone,[2],higher luminescence
"N[C@@H](Cc1cc(I)c(Oc2cc(I)c(O)c(I)c2)c(I)c1)C(=O)O [thyroxine, Thyroxine]",luminescence with a single vitamin or mineral vs basal media alone,[2],higher luminescence
Promoline [Drug 84],luminescence over 22 days vs untreated control,[1]; [5],increased luminescence
Vitamin A,luminescence with a single vitamin or mineral vs basal media alone,[2],detrimental to chondrogenesis
"FGF18: growth factor cited for dose scaling (protein, UniProt O76093 28-207, looked up) Fibroblast growth factor 18: EENVDFRIHVENQTRARDDVSRKQLRLYQLYSRTSGKHIQVLGRRISARGEDGDKYAQLLVETDTFGSQVRIKGKETEFYLCMNRKGKLVGKPDGTSKECVFIEKVLENNYTALMSAKYSGWYVGFTKKGRPRKGPKTRENQQDVHFMKRYPKGQPELQKPFKYTTVTKRSRRIRPTHPA",in vivo rat knee efficacy,[4],3-5 μg/knee

# — US20250241906A1, “ANABOLIC DRUGS STIMULATING TYPE II COLLAGEN PRODUCTION FROM CHONDROCYTES OR THEIR PROGENITORS” (UNIVERSITY OF CENTRAL FLORIDA RESEARCH FOUNDATION, INC., priority 2022, published 2025)
